Results taken from patent US9499550B2 (BRISTOL-MYERS SQUIBB COMPANY, priority 2012, dated 2016).
pEC50: −log10 of the molar value.

Experiments:
[1] = test system: HCV genotype 1a (H77 strain) replicon in HUH-7 cells; test: HCV replicon luciferase reporter assay, genotype 1a; assay type: cell-based; details: Hepatitis C virus, Huh-7, 72 h, HCV genotype 1a replicon luciferase assay, 3 days incubation, range class, read-out: LE_1a (EC50, range)
Procedure, shortened: (§1)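 Replicon inhibition for both genotypes was measured as Renilla luciferase signal (EnduRen, 7.5 μM final, 2 h) after 3-day, 37° C exposure of replicon-bearing HUH-7 cells in 4% FCS DMEM, 0.5% DMSO. The 1b construct carries S1179I; the 1a H77 construct carries P1496L and S2204I. Twenty-point, 3-fold dilutions were fitted four-parametrically for EC50, and CC50 was taken from multiplexed Cell Titer-Blue.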

[2] = test system: HCV genotype 1b (Con1) replicon in HUH-7 cells; test: HCV replicon luciferase reporter assay, genotype 1b; assay type: cell-based; details: Hepatitis C virus, Huh-7, 72 h, HCV genotype 1b replicon luciferase assay, 3 days incubation, range class, read-out: LE_1b (EC50, range)
Procedure, shortened: as §1

SMILES | pEC50 [1] | pEC50 [2]
CC(C)Oc1cc2c(Cl)cccc2c(O[C@@H]2C[C@H]3C(=O)N[C@]4(C(=O)NS(=O)(=O)C5(C)CC5)C[C@H]4/C=C\CC[C@H](C)C[C@@H](C)[C@H](NC(=O)OC(C)(C)C(F)(F)F)C(=O)N3C2)n1 [Compound 1101, 1,1,1-trifluoro-2-methylpropan-2-yl((2R,6S,7R,9S,13aS,14aR,16aS,Z)-2-((5-chloro-3-isopropoxyisoquinolin-1-yl)oxy)-7,9-dimethyl-14a-(((1-methylcyclopropyl)sulfonyl)carbamoyl)-5,16-dioxo-1,2,3,5,6,7,8,9,10,11,13a,14,14a,15,16,16a-hexadecahydrocyclopropa[e]pyrrolo[1,2-a][1,4]diazacyclopentadecin-6-yl)carbamate] | 6.99 to 8.32 | 6.99 to 8.32
CC(C)Oc1cc2c(Cl)cccc2c(O[C@@H]2C[C@H]3C(=O)N[C@]4(C(=O)NS(=O)(=O)C5(C)CC5)C[C@H]4/C=C\CC[C@@H](C)C[C@@H](C)[C@H](NC(=O)OC(C)(C)C(F)(F)F)C(=O)N3C2)n1 [Compound 1102, 1,1,1-trifluoro-2-methylpropan-2-yl((2R,6S,7R,9R,13aS,14aR,16aS,Z)-2-((5-chloro-3-isopropoxyisoquinolin-1-yl)oxy)-7,9-dimethyl-14a-(((1-methylcyclopropyl)sulfonyl)carbamoyl)-5,16-dioxo-1,2,3,5,6,7,8,9,10,11,13a,14,14a,15,16,16a-hexadecahydrocyclopropa[e]pyrrolo[1,2-a][1,4]diazacyclopentadecin-6-yl)carbamate] | > 8.26 | > 8.26
CC(C)Oc1cc2c(Cl)cccc2c(O[C@@H]2C[C@H]3C(=O)N[C@]4(C(=O)NS(=O)(=O)C5(C)CC5)C[C@H]4/C=C\CC[C@H](C)C[C@@H](C)[C@H](NC(=O)OC(C)(C)C(C)(F)F)C(=O)N3C2)n1 [Compound 1103, 3,3-difluoro-2-methylbutan-2-yl((2R,6S,7R,9S,13aS,14aR,16aS,Z)-2-((5-chloro-3-isopropoxyisoquinolin-1-yl)oxy)-7,9-dimethyl-14a-(((1-methylcyclopropyl)sulfonyl)carbamoyl)-5,16-dioxo-1,2,3,5,6,7,8,9,10,11,13a,14,14a,15,16,16a-hexadecahydrocyclopropa[e]pyrrolo[1,2-a][1,4]diazacyclopentadecin-6-yl)carbamate] | 6.99 to 8.32 | > 8.26
CC(C)Oc1cc2c(Cl)cccc2c(O[C@@H]2C[C@H]3C(=O)N[C@]4(C(=O)NS(=O)(=O)C5(C)CC5)C[C@H]4/C=C\CC[C@@H](C)C[C@@H](C)[C@H](NC(=O)OC(C)(C)C(C)(F)F)C(=O)N3C2)n1 [Compound 1104, 3,3-difluoro-2-methylbutan-2-yl((2R,6S,7R,9R,13aS,14aR,16aS,Z)-2-((5-chloro-3-isopropoxyisoquinolin-1-yl)oxy)-7,9-dimethyl-14a-(((1-methylcyclopropyl)sulfonyl)carbamoyl)-5,16-dioxo-1,2,3,5,6,7,8,9,10,11,13a,14,14a,15,16,16a-hexadecahydrocyclopropa[e]pyrrolo[1,2-a][1,4]diazacyclopentadecin-6-yl)carbamate] | > 8.26 | > 8.26
CC(C)Oc1cc2c(Cl)cccc2c(O[C@@H]2C[C@H]3C(=O)N[C@]4(C(=O)NS(=O)(=O)C5CC5)C[C@H]4/C=C\CC[C@H](C)C[C@@H](C)[C@H](NC(=O)OC(C)(C)C(C)(F)F)C(=O)N3C2)n1 [Compound 1105, 3,3-difluoro-2-methylbutan-2-yl((2R,6S,7R,9S,13aS,14aR,16aS,Z)-2-((5-chloro-3-isopropoxyisoquinolin-1-yl)oxy)-14a-((cyclopropylsulfonyl)carbamoyl)-7,9-dimethyl-5,16-dioxo-1,2,3,5,6,7,8,9,10,11,13a,14,14a,15,16,16a-hexadecahydrocyclopropa[e]pyrrolo[1,2-a][1,4]diazacyclopentadecin-6-yl)carbamate] | > 8.26 | > 8.26
CC(C)Oc1cc2c(Cl)cccc2c(O[C@@H]2C[C@H]3C(=O)N[C@]4(C(=O)NS(=O)(=O)C5CC5)C[C@H]4/C=C\CC[C@@H](C)C[C@@H](C)[C@H](NC(=O)OC(C)(C)C(C)(F)F)C(=O)N3C2)n1 [Compound 1106, 3,3-difluoro-2-methylbutan-2-yl((2R,6S,7R,9R,13aS,14aR,16aS,Z)-2-((5-chloro-3-isopropoxyisoquinolin-1-yl)oxy)-14a-((cyclopropylsulfonyl)carbamoyl)-7,9-dimethyl-5,16-dioxo-1,2,3,5,6,7,8,9,10,11,13a,14,14a,15,16,16a-hexadecahydrocyclopropa[e]pyrrolo[1,2-a][1,4]diazacyclopentadecin-6-yl)carbamate] | > 8.26 | > 8.26
C[C@H]1CC/C=C\[C@@H]2C[C@@]2(C(=O)NS(=O)(=O)C2(C)CC2)NC(=O)[C@@H]2C[C@@H](Oc3nc(OCC(F)F)cc4c(Cl)cccc34)CN2C(=O)[C@@H](NC(=O)O[C@H](C)C(F)(F)F)[C@H](C)C1 [Compound 1107, (R)-1,1,1-trifluoropropan-2-yl ((2R,6S,7R,9S,13aS,14aR,16aS,Z)-2-((5-chloro-3-(2,2-difluoroethoxyl)isoquinolin-1-yl)oxy)-7,9-dimethyl-14a-(((1-methylcyclopropyl)sulfonyl)carbamoyl)-5,16-dioxo-1,2,3,5,6,7,8,9,10,11,13a,14,14a,15,16,16a-hexadecahydrocyclopropa[e]pyrrolo[1,2-a][1,4]diazacyclopentadecin-6-yl)carbamate] | 6.99 to 8.32 | > 8.26
C[C@@H]1CC/C=C\[C@@H]2C[C@@]2(C(=O)NS(=O)(=O)C2(C)CC2)NC(=O)[C@@H]2C[C@@H](Oc3nc(OCC(F)F)cc4c(Cl)cccc34)CN2C(=O)[C@@H](NC(=O)O[C@H](C)C(F)(F)F)[C@H](C)C1 [Compound 1108, (R)-1,1,1-trifluoropropan-2-yl ((2R,6S,7R,9R,13aS,14aR,16aS,Z)-2-((5-chloro-3-(2,2-difluoroethoxyl)isoquinolin-1-yl)oxy)-7,9-dimethyl-14a-(((1-methylcyclopropyl)sulfonyl)carbamoyl)-5,16-dioxo-1,2,3,5,6,7,8,9,10,11,13a,14,14a,15,16,16a-hexadecahydrocyclopropa[e]pyrrolo[1,2-a][1,4]diazacyclopentadecin-6-yl)carbamate] | > 8.26 | > 8.26
C[C@@H]1CC/C=C\[C@@H]2C[C@@]2(C(=O)NS(=O)(=O)C2(C)CC2)NC(=O)[C@@H]2C[C@@H](Oc3nc(OCC(F)F)cc4c(Cl)cccc34)CN2C(=O)[C@@H](NC(=O)OC(C)(C)C(C)(F)F)[C@H](C)C1 [Compound 1110, 3,3-difluoro-2-methylbutan-2-yl((2R,6S,7R,9R,13aS,14aR,16aS,Z)-2-((5-chloro-3-(2,2-difluoroethoxyl)isoquinolin-1-yl)oxy)-7,9-dimethyl-14a-(((1-methylcyclopropyl)sulfonyl)carbamoyl)-5,16-dioxo-1,2,3,5,6,7,8,9,10,11,13a,14,14a,15,16,16a-hexadecahydrocyclopropa[e]pyrrolo[1,2-a][1,4]diazacyclopentadecin-6-yl)carbamate] | > 8.26 | > 8.26
C[C@H]1CC/C=C\[C@@H]2C[C@@]2(C(=O)NS(=O)(=O)C2CC2)NC(=O)[C@@H]2C[C@@H](Oc3nc(OCC(F)F)cc4c(Cl)cccc34)CN2C(=O)[C@@H](NC(=O)OC(C)(C)C(C)(F)F)[C@H](C)C1 [Compound 1111, 3,3-difluoro-2-methylbutan-2-yl((2R,6S,7R,9S,13aS,14aR,16aS,Z)-2-((5-chloro-3-(2,2-difluoroethoxyl)isoquinolin-1-yl)oxy)-14a-((cyclopropylsulfonyl)carbamoyl)-7,9-dimethyl-5,16-dioxo-1,2,3,5,6,7,8,9,10,11,13a,14,14a,15,16,16a-hexadecahydrocyclopropa[e]pyrrolo[1,2-a][1,4]diazacyclopentadecin-6-yl)carbamate] | > 8.26 | > 8.26
C[C@@H]1CC/C=C\[C@@H]2C[C@@]2(C(=O)NS(=O)(=O)C2CC2)NC(=O)[C@@H]2C[C@@H](Oc3nc(OCC(F)F)cc4c(Cl)cccc34)CN2C(=O)[C@@H](NC(=O)OC(C)(C)C(C)(F)F)[C@H](C)C1 [Compound 1112, 3,3-difluoro-2-methylbutan-2-yl((2R,6S,7R,9R,13aS,14aR,16aS,Z)-2-((5-chloro-3-(2,2-difluoroethoxyl)isoquinolin-1-yl)oxy)-14a-((cyclopropylsulfonyl)carbamoyl)-7,9-dimethyl-5,16-dioxo-1,2,3,5,6,7,8,9,10,11,13a,14,14a,15,16,16a-hexadecahydrocyclopropa[e]pyrrolo[1,2-a][1,4]diazacyclopentadecin-6-yl)carbamate] | > 8.26 | > 8.26
COCCOc1cc2c(Cl)cccc2c(O[C@@H]2C[C@H]3C(=O)N[C@]4(C(=O)NS(=O)(=O)C5(C)CC5)C[C@H]4/C=C\CC[C@H](C)C[C@@H](C)[C@H](NC(=O)OC(C)(C)C(F)(F)F)C(=O)N3C2)n1 [Compound 1113, 1,1,1-trifluoro-2-methylpropan-2-yl((2R,6S,7R,9S,13aS,14aR,16aS,Z)-2-((5-chloro-3-(2-methoxyethoxyl)isoquinolin-1-yl)oxy)-7,9-dimethyl-14a-(((1-methylcyclopropyl)sulfonyl)carbamoyl)-5,16-dioxo-1,2,3,5,6,7,8,9,10,11,13a,14,14a,15,16,16a-hexadecahydrocyclopropa[e]pyrrolo[1,2-a][1,4]diazacyclopentadecin-6-yl)carbamate] | > 8.26 | > 8.26
